Measured values reported in ChEMBL document CHEMBL1201862, “PubChem BioAssay data set” (2004).
Calls of active or inactive are those of the source.

Tests used:
cells [1] = assay type: functional, cell-based
[2] = molecular target: T1, Apoptotic protease-activating factor 1 (Homo sapiens, UniProt O14727); assay type: functional
T1 sequence (O14727 whole entry): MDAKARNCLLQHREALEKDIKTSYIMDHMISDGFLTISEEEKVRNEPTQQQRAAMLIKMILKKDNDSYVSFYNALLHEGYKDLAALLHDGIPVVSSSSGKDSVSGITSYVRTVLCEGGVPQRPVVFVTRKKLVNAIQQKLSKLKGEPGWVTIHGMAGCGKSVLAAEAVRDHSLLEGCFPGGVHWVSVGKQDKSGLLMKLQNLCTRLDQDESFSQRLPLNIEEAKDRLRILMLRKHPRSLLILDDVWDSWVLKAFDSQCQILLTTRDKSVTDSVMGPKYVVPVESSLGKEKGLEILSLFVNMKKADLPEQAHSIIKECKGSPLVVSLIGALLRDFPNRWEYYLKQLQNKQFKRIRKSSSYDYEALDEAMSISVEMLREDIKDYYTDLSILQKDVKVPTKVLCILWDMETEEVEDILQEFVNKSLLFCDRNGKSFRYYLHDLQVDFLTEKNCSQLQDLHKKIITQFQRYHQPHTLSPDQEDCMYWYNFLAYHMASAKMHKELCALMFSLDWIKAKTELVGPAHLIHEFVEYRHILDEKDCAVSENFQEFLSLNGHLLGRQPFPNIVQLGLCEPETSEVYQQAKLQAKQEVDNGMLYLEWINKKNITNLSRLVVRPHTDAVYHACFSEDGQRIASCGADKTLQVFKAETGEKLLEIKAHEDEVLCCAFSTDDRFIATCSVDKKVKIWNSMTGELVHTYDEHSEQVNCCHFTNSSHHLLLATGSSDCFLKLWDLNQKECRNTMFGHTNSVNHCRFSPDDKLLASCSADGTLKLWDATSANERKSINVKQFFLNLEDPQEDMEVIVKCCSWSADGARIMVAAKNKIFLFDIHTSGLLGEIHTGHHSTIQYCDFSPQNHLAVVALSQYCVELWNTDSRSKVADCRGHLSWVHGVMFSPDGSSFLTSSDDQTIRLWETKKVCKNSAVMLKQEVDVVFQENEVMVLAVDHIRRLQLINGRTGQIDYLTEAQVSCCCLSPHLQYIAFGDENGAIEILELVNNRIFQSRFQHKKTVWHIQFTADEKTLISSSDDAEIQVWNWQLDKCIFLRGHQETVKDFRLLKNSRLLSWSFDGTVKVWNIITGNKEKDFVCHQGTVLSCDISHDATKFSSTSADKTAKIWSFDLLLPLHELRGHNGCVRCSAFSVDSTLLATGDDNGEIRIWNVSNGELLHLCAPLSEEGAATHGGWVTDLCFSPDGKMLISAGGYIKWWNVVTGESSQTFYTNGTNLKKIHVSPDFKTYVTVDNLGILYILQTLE

cells [3] = assay type: functional, cell-based; remark: listed apart in the source
[4] = molecular target: T2, Sentrin-specific protease 8 (Homo sapiens, UniProt Q96LD8); assay type: functional
T2 sequence (Q96LD8 whole entry): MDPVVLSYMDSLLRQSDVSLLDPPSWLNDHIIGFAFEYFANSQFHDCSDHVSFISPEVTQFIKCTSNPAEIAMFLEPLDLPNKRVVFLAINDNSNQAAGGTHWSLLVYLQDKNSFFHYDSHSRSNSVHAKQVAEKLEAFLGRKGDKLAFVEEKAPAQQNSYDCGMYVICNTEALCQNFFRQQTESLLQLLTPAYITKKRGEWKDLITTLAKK

Protein Tat = molecular target: T3, Protein Tat (Human immunodeficiency virus type 1 group M subtype B (isolate HXB2)(HIV-1), UniProt P04608); assay type: functional;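 further: tat binding to TAR RNA read out by fluorescence polarization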
T3 sequence (P04608 whole entry): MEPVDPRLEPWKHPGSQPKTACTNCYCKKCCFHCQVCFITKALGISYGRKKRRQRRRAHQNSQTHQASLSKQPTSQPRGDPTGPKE

[5] = molecular target: T4, Mannose-6-phosphate isomerase (Homo sapiens, UniProt P34949); assay: MPI inhibition at elevated mannose 6-phosphate – biochemical, fluorescence intensity, high mannose 6-phosphate, primary screen (AID 1220)
T4 sequence (P34949 whole entry): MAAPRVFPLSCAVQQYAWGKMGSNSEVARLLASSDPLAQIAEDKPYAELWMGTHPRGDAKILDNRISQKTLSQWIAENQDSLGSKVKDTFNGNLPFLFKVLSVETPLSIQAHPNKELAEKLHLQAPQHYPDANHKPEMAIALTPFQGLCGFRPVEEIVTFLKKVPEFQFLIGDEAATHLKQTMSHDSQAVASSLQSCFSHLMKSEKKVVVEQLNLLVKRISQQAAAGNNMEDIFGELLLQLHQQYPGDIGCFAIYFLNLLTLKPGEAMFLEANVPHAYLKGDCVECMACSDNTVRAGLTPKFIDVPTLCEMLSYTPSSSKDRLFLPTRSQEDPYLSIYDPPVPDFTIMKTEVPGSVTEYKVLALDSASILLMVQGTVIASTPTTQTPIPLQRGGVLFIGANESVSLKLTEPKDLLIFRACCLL

[6] = molecular target: Cyclin-dependent kinase 7 (Homo sapiens, UniProt P50613); assay type: functional;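 further: value comes from a kinome-wide kinase profiling panel in which CDK7 is one member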
[7] = molecular target: Dual specificity tyrosine-phosphorylation-regulated kinase 1A (Homo sapiens, UniProt Q13627); assay type: functional;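 further: measured against DYRK1A as one member of a broad kinome profiling panel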
[8] = molecular target: Dual specificity tyrosine-phosphorylation-regulated kinase 4 (Homo sapiens, UniProt Q9NR20); assay type: functional
[9] = molecular target: Serine/threonine-protein kinase PLK1 (Homo sapiens, UniProt P53350); assay type: functional;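 further: PLK1 measured as one member of a kinome-wide profiling panel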
SRSF protein kinase 1 = SRSF protein kinase 1 (Homo sapiens, UniProt Q96SB4); assay type: functional;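 further: measured as one member of a kinome-wide kinase profiling panel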
[10] = molecular target: Glycogen synthase kinase-3 beta (Homo sapiens, UniProt P49841); assay type: functional;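 further: value comes from a broad kinome profiling panel, with GSK3B as the panel member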
[11] = molecular target: Inhibitor of nuclear factor kappa-B kinase subunit epsilon (Homo sapiens, UniProt Q14164); assay: Navigating the Kinome. Panel member name: IKBKE; assay type: functional
[12] = molecular target: Serine/threonine-protein kinase BRSK1 (Homo sapiens, UniProt Q8TDC3); assay type: functional;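 further: measured within a kinome-wide kinase panel, with the target listed as KIAA1811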
[13] = molecular target: Casein kinase I isoform delta (Homo sapiens, UniProt P48730); assay type: functional;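 further: measured as one member (CSNK1D) of a kinome panel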
[14] = molecular target: Mitogen-activated protein kinase 1 (Homo sapiens, UniProt P28482); assay type: functional
[15] = molecular target: Rho-associated protein kinase 2 (Homo sapiens, UniProt O75116); assay type: functional
[16] = molecular target: Mitogen-activated protein kinase kinase kinase 10 (Homo sapiens, UniProt Q02779); assay: Navigating the Kinome. Panel member name: MAP3K10; assay type: functional
Mitogen-activated protein kinase kinase kinase 10, sequence (Q02779 whole entry): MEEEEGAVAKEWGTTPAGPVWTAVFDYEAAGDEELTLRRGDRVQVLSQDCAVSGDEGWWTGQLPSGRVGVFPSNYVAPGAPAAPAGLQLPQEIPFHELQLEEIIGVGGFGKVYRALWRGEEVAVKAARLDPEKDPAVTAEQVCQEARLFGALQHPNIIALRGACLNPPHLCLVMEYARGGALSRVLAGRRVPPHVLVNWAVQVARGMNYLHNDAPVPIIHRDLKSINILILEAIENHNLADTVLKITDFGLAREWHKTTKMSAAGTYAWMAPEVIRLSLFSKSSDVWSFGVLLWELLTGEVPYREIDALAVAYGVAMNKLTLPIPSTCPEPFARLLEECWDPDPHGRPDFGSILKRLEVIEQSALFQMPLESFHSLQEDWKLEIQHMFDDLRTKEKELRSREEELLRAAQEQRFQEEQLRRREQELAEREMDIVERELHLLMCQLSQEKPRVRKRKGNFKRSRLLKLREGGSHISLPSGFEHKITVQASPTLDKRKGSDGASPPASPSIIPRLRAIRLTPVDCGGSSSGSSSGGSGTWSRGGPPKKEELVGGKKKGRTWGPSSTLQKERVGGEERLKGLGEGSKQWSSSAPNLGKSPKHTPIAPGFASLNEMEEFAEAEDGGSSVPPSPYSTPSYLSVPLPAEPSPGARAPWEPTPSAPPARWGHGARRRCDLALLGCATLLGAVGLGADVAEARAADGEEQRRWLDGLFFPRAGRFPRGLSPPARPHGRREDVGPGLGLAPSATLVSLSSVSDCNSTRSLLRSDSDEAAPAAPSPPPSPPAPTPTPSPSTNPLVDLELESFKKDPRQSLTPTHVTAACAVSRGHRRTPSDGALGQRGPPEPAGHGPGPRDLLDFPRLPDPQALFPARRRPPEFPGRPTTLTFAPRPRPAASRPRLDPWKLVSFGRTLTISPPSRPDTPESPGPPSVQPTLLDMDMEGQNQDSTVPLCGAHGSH

Glycogen synthase kinase-3 beta, sequence (P49841 whole entry): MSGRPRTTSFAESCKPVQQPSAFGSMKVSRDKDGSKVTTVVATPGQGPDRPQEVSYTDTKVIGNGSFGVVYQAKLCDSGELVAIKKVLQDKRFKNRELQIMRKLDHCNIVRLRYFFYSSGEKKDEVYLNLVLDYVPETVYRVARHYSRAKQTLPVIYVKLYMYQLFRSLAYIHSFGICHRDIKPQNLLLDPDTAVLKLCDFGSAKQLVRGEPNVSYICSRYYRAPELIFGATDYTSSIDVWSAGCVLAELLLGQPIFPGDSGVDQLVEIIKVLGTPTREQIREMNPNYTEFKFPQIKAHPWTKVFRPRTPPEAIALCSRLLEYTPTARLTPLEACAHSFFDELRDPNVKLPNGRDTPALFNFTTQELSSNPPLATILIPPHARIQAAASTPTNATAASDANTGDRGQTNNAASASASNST
Rho-associated protein kinase 2, sequence (O75116 whole entry): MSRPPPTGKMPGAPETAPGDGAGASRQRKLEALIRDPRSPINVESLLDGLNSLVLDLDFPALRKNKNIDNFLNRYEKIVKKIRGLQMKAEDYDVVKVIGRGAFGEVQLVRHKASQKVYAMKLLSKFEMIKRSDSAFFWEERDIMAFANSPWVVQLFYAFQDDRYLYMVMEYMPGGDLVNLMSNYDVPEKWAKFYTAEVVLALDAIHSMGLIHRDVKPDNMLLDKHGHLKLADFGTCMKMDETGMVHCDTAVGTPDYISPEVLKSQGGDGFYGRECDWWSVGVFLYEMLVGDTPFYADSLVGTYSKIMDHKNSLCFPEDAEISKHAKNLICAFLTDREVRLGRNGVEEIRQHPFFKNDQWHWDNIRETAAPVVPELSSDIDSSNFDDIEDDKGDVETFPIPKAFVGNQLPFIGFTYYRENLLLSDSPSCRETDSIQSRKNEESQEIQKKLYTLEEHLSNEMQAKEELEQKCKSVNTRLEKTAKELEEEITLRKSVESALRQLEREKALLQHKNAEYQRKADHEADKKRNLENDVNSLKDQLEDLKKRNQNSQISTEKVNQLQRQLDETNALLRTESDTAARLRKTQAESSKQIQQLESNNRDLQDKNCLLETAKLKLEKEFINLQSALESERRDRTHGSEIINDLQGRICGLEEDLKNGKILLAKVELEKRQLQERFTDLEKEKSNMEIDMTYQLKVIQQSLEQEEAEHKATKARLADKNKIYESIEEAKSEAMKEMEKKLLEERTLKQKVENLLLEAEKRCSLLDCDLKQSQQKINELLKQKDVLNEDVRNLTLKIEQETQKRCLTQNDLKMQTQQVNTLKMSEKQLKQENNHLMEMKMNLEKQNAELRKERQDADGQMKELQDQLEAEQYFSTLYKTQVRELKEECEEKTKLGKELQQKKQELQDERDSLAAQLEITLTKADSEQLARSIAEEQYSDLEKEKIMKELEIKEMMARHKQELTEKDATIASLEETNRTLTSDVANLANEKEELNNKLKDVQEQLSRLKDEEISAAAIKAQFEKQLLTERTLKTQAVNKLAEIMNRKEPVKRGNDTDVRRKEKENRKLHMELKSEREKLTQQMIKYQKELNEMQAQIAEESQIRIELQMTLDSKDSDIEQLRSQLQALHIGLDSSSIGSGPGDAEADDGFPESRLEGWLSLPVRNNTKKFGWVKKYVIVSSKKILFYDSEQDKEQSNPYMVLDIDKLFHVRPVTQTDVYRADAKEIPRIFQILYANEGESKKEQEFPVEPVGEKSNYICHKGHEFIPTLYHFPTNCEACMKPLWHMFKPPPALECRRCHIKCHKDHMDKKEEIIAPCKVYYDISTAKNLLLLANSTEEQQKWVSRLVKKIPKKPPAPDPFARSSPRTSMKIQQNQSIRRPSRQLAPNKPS
Cyclin-dependent kinase 7, sequence (P50613 whole entry): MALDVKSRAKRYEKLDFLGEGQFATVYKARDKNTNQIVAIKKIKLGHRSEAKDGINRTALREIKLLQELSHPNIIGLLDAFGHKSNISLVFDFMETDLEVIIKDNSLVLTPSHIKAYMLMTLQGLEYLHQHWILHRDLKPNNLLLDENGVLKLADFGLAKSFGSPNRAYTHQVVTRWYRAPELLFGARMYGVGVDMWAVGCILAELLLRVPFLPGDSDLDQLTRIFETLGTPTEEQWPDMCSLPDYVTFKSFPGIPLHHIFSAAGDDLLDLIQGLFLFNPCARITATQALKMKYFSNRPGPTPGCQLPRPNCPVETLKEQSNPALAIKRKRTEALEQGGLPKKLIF
Inhibitor of nuclear factor kappa-B kinase subunit epsilon, sequence (Q14164 whole entry): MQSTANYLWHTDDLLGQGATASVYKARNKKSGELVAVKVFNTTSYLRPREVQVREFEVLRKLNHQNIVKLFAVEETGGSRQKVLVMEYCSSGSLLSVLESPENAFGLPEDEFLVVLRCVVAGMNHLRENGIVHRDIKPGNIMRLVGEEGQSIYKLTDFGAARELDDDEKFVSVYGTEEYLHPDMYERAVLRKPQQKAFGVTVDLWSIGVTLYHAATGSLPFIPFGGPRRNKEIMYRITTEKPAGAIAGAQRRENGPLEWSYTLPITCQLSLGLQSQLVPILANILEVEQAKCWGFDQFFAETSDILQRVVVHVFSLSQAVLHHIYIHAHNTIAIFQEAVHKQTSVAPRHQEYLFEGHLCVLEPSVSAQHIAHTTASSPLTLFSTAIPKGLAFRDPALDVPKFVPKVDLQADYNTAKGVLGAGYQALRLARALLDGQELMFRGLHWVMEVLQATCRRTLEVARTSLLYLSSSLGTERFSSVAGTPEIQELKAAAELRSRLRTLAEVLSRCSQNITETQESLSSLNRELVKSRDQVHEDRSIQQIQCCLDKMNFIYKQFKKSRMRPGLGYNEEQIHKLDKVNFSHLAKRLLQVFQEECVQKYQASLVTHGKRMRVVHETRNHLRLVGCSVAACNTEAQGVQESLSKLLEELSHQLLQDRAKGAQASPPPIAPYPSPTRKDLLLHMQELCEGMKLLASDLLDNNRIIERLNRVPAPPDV
Casein kinase I isoform delta, sequence (P48730 whole entry, canonical isoform): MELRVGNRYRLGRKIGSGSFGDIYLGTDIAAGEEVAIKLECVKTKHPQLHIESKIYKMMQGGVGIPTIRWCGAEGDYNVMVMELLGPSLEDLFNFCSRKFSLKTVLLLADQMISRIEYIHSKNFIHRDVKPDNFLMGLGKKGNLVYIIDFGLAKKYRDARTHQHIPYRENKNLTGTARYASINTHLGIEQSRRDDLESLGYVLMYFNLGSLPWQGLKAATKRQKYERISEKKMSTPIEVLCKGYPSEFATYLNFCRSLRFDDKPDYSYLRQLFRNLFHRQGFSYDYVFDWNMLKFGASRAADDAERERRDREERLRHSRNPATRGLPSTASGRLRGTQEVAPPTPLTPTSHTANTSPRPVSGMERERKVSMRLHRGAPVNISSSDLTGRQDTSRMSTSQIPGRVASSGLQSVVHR
Serine/threonine-protein kinase BRSK1, sequence (Q8TDC3 whole entry, canonical isoform): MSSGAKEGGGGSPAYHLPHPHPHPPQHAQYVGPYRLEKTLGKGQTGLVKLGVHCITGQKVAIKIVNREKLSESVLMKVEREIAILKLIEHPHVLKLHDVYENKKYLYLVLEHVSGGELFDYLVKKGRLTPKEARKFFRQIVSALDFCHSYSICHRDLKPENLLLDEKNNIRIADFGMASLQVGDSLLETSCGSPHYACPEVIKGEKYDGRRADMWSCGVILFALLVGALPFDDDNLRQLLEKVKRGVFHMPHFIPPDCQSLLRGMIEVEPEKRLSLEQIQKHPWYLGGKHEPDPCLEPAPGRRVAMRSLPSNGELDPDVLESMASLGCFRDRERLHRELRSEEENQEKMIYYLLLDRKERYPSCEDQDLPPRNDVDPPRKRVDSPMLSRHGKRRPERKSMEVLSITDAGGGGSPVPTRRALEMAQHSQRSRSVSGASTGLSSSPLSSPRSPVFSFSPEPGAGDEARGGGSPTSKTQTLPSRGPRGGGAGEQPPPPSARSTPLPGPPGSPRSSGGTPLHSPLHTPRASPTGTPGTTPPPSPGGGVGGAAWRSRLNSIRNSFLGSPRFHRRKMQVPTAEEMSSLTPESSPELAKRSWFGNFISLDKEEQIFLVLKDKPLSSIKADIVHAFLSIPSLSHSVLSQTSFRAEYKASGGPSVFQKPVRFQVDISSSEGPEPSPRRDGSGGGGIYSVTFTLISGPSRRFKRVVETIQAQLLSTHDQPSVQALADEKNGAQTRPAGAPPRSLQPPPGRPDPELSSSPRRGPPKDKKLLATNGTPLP

Q: Which EC50 (cells [1]) does the source give for `CCOC(=O)c1c(NS(=O)(=O)c2ccccc2)n(CCCOC)c2nc3ccccc3nc12` here?
A: The EC50 was > 350 µM (not active).

Q: What about the IC50 [2] of the same molecule?
A: The IC50 was 24.2 µM (active).

Q: And the EC50 (cells [3])?
A: The EC50 was > 350 µM (not active).

Q: Which IC50 [4] does the source give for `O=C(COC(=O)c1ccc([N+](=O)[O-])s1)NCCc1ccccc1` here?
A: Its IC50 is 2.82 µM (active).

Q: What does the source list for `COCC/N=c1\scc(-c2cccs2)n1/N=C/c1ccc(O)c(O)c1O`?
A: IC50 (Protein Tat): > 100 µM (inconclusive); IC50 [5]: 23.8 µM (active)

Q: With `OC1CCC(Nc2cc(Cl)nc(-c3c[nH]c4ncccc34)n2)CC1` (stereo not drawn) as the molecule, how does the Ki [6] read?
A: The Ki was > 6.31 µM (inactive).

Q: What about the Ki [7] of the same molecule?
A: Its Ki is 0.0501 µM (active).

Q: What about the Ki [8] of the same molecule?
A: The Ki was 1.58 µM (active).

Q: And the Ki [9]?
A: The Ki was > 5.01 µM (inactive).

Q: And the Ki (SRSF protein kinase 1)?
A: The Ki was > 7.94 µM (inactive).

Q: And the Ki [10]?
A: The Ki was 0.0631 µM (active).

Q: What about the Ki [11] of the same molecule?
A: Its Ki is > 3.16 µM (inactive).

Q: What about the Ki [12] of the same molecule?
A: Its Ki is 1.26 µM (active).

Q: What about the Ki [13] of the same molecule?
A: Its Ki is 0.2 µM (active).

Q: And the Ki [14]?
A: The Ki was > 5.01 µM (inactive).

Q: And the Ki [15]?
A: Its Ki is 0.0126 µM (active).

Q: And the Ki [16]?
A: The Ki was 0.0794 µM (active).
